Values quoted from earlier work, collected in patent US20260007589A1, “METHOD FOR DYEING KERATINOUS MATERIAL COMPRISING THE USE OF AN ORGANOSILICON COMPOUND, AN EFFECT PIGMENT, AND A FILM-FORMING POLYMER III” (Henkel AG & Co. KGaA, priority 2019, published 2026).
Where two headings read alike, the source gives them in different places.

SMILES: CCN(Cc1cccc(S(=O)(=O)[O-])c1)c1ccc(C(=C2C=CC(=[N+](CC)Cc3cccc(S(=O)(=O)[O-])c3)C=C2)c2ccccc2S(=O)(=O)[O-])cc1.[Na+].[Na+] [Acid Blue 9]
- solubility in water (25° C.): more than 20 % by weight

SMILES: O=S(=O)([O-])c1ccc(N=Nc2c(O)ccc3ccccc23)cc1.[Na+] [Acid Orange 7, sodium salt of 4-[(2-hydroxy-1-naphthyl)azo]benzene sulphonate]
- solubility in water (25° C.): more than 7 g/L

SMILES: Nc1cc(S(=O)(=O)[O-])cc2cc(S(=O)(=O)[O-])c(N=Nc3ccccc3)c(O)c12.[Na+].[Na+] [Acid Red 33, disodium salt of 5-amino-4-hydroxy-3-(phenylazo)-naphthalene-2,7-disulphonate]
- solubility in water (25° C.): 2500 µg/mL

SMILES: O=C([O-])c1c(Cl)c(Cl)c(Cl)c(Cl)c1-c1c2c(Br)cc(=O)c(Br)c-2oc2c(Br)c(O)cc(Br)c12.O=C([O-])c1c(Cl)c(Cl)c(Cl)c(Cl)c1-c1c2c(Br)cc(=O)c(Br)c-2oc2c(Br)c(O)cc(Br)c12.[Na+].[Na+] [Acid Red 92, disodium salt of 3,4,5,6-tetrachloro-2-(1,4,5,8-tetrabromo-6-hydroxy-3-oxoxanthen-9-yl)benzoic acid]
- solubility in water (25° C.): greater than 10 g/L

SMILES: O=C([O-])C1=NN(c2ccc(S(=O)(=O)[O-])cc2)C(=O)C1N=Nc1ccc(S(=O)(=O)[O-])cc1.[Na+].[Na+].[Na+] (centres unmarked) [Acid Yellow 23, trisodium salt of 4,5-dihydro-5-oxo-1-(4-sulfophenyl)-4-((4-sulfophenyl)azo)-1H-pyrazole-3-carboxylic acid]
- solubility in water (at 25° C.): highly soluble in water
